Tests used:
PDCD1 protein = assay: Surface expression of the PDCD1 protein by flow cytometry in Jurkat cells; format: cell-based, human; conditions: flow cytometry 4, 7 and 11 days post-transfection, crPDCD1_2 value at day 4, same at day 11
Experimental: For detection of PDCD1 knock-out efficiency, approx. 250,000 Jurkat cells per sample were transferred onto 96-well V-bottom cell culture plates and assessed following a series of consecutive washing and staining steps. The first step included centrifuging the cells at 300 g for 5 minutes at 4° C., and discarding the supernatant. Afterwards, the cells were stained using 100 μL Cell Staining Buffer (Biolegend) with APC/Cyanine7 anti-human CD279 (PD-1) antibody (1:100: Biolegend) and incubated for 30 minutes at 4° C., in the dark. The cells were then centrifuged at 300 g for 5 minutes at 4° C., and the supernatant discarded. The next step included two repeats of centrifugation at 300 g for 5 minutes at 4° C., supernatant removal, and cell washing in 150 μL ice-cold Cell Staining Buffer (Biolegend). In the final step, the cells were re-suspended in 100 μL Cell Staining Buffer for the flow cytometry measurements (excitation: red laser; emission: […]).
(§1) High-efficiency gNAs identified in our initial analysis were validated by assaying INDEL frequency for the top three or five gNAs for each of the selected immunologically relevant genes (FIG. 15). […] Alternating grey and white zones on the plot represent groups of three to five high-efficiency gNAs per locus. […] Using the CRISPresso2 software, the degree of open reading frame (ORF) disruption for each of the validated gNAs was estimated (FIG. 15). In addition, for four high-efficiency gNAs targeting three different exons at the PDCD1 locus, surface expression of the PDCD1 protein was measured by flow cytometry 4, 7, and 11 days post-transfection (data not shown).

TIM3 = assay: gNA validation: frameshift (ORF disruption) frequency, TIM3; format: cell-based, human; conditions: Jurkat, CRISPResso2 ORF analysis
Experimental: Initial quality assessment of the obtained reads was performed with FastQC36. The sequencing data were aligned and analyzed with the CRISPResso2 software, using CRISPRessoBatch command with the parameters—cleavage_offset 1—quantification_window_size 10—quantification_window_center 1—expand_ambiguous_alignments for the INDEL frequency analysis. For the ORF disruption analysis, CRISPRessoBatch command with the parameters—cleavage_offset 1—coding_seq <EXON_SEQ>—quantification_window_size 0—quantification_window_center 1—expand_ambiguous_alignments was used. Modification rates from the CRISPResso2 software output were analyzed in Excel.
as §1
Average fraction of INDELs leading to frameshifts (dashed line) is approx. 66%. […]

TRBC1 and TRBC2 = assay: On-target Amplicon-NGS in Pan T-cells, TRBC; format: cell-based, human
Description: (§2) T-cells were isolated […] buffy coats and nucleofected after two days. The buffy coats were procured from the Rigshospitalet in Copenhagen, Denmark. The Pan-T cells were enriched by negative selection using an Easy Sep Human T-cell Isolation Kit from StemCell Technologies. The RNPs were formed by mixing gRNAs with Art-Mad7mam+ prior to nucleofection with Jurkat or T-cells. In some cases, synthetic ssODNs (Table 11) with a length of 200 nt were included in the transfections to evaluate impact on frame shift mutation rates by HDR rather than relying on NHEJ alone in an effort to maximize functional disruption. The ssODNs were designed to comprise a deletion of the spacer and PAM sequence thereby resulting in a programmed frame shift. After transfection, the cells were cultivated and assayed for the different readouts. The nucleofection with dual gRNAs followed a similar protocol, but with minor differences in pre-assembling of the gRNAs. Briefly, the two dual RNAs (modulator and targeter) are combined in a molecular ratio of 1:1 (400 μM Modulator
(§3) At the genome level, Amplicon-NGS was used to determine the type and mutation frequency at the on-target site. The Amplicon-NGS assay is based on the amplification of the on-target site using specific primer pairs. The primers are designed to have the predicted cutting site at the center and a length of 180-280 nt. The amplicons are indexed for NGS and sequenced on an Illumina MiSeq system. The analysis was performed using the Crispresso script. Crispresso requires the input of a configuration file comprised of the specific gRNA sequence, primer sequences and the theoretical amplicon that is based on the alignment of the primer pair to the reference human genome GRCh38. In addition, for HDR analysis associated with ssODN-programmable editing a reference sequence with the specific mutations can be input into the configuration file. Crispresso aligns the sequencing reads to the reference amplicon and analyzes the mutation type and frequency −/+10 nt at the putative cut site of Art-Mad7mam+ based on the provided gRNA sequence. As output, Crispresso delivers different mutation types and their frequencies: Substitutions, INDELs, HDR Unmodified, HDR INDELs, HDR+substitutions.
(§4) To further test the effects of ssODNs, single and dual gRNAs were mixed with Art-MAD7mam+ nuclease, and in some cases included a ssODN designed to create a programmed disruption in the target gene. The freshly isolated Pan-T cells were activated and cultured for 2 days, and RNPs−/+ssODNs were transfected using the Lonza 96-well plate shuttle. […]

CSF2 [1] = assay: Functional KO in Pan T-cells: intracellular CSF2 staining after PMA and Ionomycin; format: cell-based, human
Experimental: Protein expression for targeted genes was measured by antibody staining against the target protein to quantify functional disruption of the target gene. The efficiency of functional disruption was verified by antibody staining and quantified as the negative cell population by flow cytometry. TRBC, CD3E and CD40LG are located at the cell surface and living cells were stained with the corresponding antibodies. Since CSF2 is a secreted protein, cells were first activated, secretion was blocked, cells were fixed with formaldehyde, and permeabilized before the staining procedure. Given CD40LG and CSF2 are expressed upon stimulation of primary T-cells, cells were activated first to enhance their expression. The induction of CD40LG and CSF2 was achieved using anti-CD3/CD28 and PMA/Ionomycin, respectively.
The best CSF2 gRNA was identified as gCSF2_007 in the Jurkat experiment. In Pan T-cells, the cutting efficiency was approximately 65% and 45% and could be increased by ssODN inclusion to ˜80 and 70% for the regular and STAR design, respectively (FIG. 33E). […] The cells were treated with PMA and Ionomycin to strongly activate the cells and blocked the secretion of the protein with Golgiplug and Golgistop and stained the cells after fixation and permeabilization for the intracellular accumulated CSF2 proteins.

CSF2 [2] = assay: On-target Amplicon-NGS in Pan T-cells, CSF2; format: cell-based, human
Description: as §2, §3, §4

CSF2 [3] = assay: Cutting efficiency by Amplicon-NGS in Jurkat cells, CSF2; format: cell-based, human
Description: as §2
At the genome level, Amplicon-NGS was used to determine the type and mutation frequency at the on-target site. The Amplicon-NGS assay is based on the amplification of the on-target site using specific primer pairs. […] Crispresso aligns the sequencing reads to the reference amplicon and analyzes the mutation type and frequency −/+10 nt at the putative cut site of Art-Mad7mam+ based on the provided gRNA sequence. […]
The cutting efficiency was calculated as the percentage of reads with any NHEJ modification (including insertions, deletions, and/or substitutions) of the total number of reads that were aligned to the reference amplicon. […]
The top gRNAs identified in the tiling experiments in, were further tested by performing additional nucleofections in Jurkat cells and measuring viability, INDEL formation by amplicon-NGS, and functional flow cytometry assays. […] For the Amplicon-NGS readout three days after transfection, genomic DNA was prepared, amplicons generated, and sequence analyzed. […]

[4] = system: predicted off-target sites; assay: INDEL frequency at predicted off-target sites (CasOFFinder, targeted deep sequencing) in Jurkat cells; format: cell-based, human; conditions: crPDCD1: <=4 mismatches, remaining gNAs <=3 mismatches, vs MOCK, Pairwise T-test
Experimental: Another consideration for selecting gNAs is the potential for off-target cleavage events. The list of validated gNAs was analyzed using the CasOFFinder software to predict potential off-target editing sites in the genome with up to four mismatches between the gNA and the target DNA sequence. Using the Bioconductor R packages, the predicted off-target sites were matched with the human gene database, and those sites that targeted exons and introns within the genes were extracted. Afterwards, the degree of editing activity at these sites was examined by targeted next-generation sequencing, more specifically, at 25 predicted off-target sites for the top-two PDCD1 gNAs, i.e., crPDCD1_1 and crPDCD1_2. […] INDEL frequency at 43 putative off-target sites with up to three mismatches between gNA and target DNA sequence were assayed for the top-two gNAs targeting seven remaining genes (i.e., TIM3, LAG3, TIG1T, CTLA4, PTPN6, PTPN11, and CD247; spacer sequences in Table 5). […] Specifically. FIGS. 18-19 show INDEL frequency of MAD7 (n=3; Mean±SD) in T-cell leukemic cell line at predicted off-target sites analyzed by targeted deep sequencing. For crPDCD1. INDEL frequency was analyzed at the putative off-target editing sites with ≤4 mismatches between the gNA and target DNA sequence, and with ≤3 mismatches on the remaining gNAs.

human genes = assay: Editing efficiency of tested crRNAs / guide nucleic acids (Tables 7-10) detected in human cells; format: cell-based; conditions: tested crRNAs targeting human genes; target gene as given (Table 10)

crPDCD1_4: high-efficiency gNA targeting the PDCD1 locus (guide CTAGCGGAATGGGCACCTCAT; spacer only, further chemistry not given here)
surface expression of the PDCD1 protein (PDCD1 protein): 85%

crPDCD1_3: high-efficiency gNA targeting the PDCD1 locus (guide CAGTGGCGAGAGAAGACCCCG; spacer only, further chemistry not given here)
surface expression of the PDCD1 protein (PDCD1 protein): 35%

crPDCD1_5: high-efficiency gNA targeting the PDCD1 locus (guide GTGCTAAACTGGTACCGCATG; spacer only, further chemistry not given here)
surface expression of the PDCD1 protein (PDCD1 protein): 85%

crTIM3_1: validated high-efficiency gNA, TIM3 (guide CTTGTAAGTAGTAGCAGCAGC; spacer only, further chemistry not given here)
frameshifts frequency (fraction of frameshift to INDEL) (TIM3): 23%

gTRBC1_2_003: gRNA targeting both TRBC1 and TRBC2; dual form Targeter_TRBC1_2_003 UUGUAGAUAGCCAUCAGAAGCAGAGAUCU (dual-guide targeter with IDT AltR2 3' modification, chemistry undefined, further chemistry not given here)
lower INDEL frequency, dual vs regular configuration (TRBC1 and TRBC2): ~5%
perfect HDR rate (TRBC1 and TRBC2; inclusion of ssODNs): ~40%
mutation rate (TRBC1 and TRBC2; inclusion of ssODNs, all cases): > 90%
INDEL frequency at the on-target site (TRBC1 and TRBC2; regular gRNA configuration): ~90%

crTIM3_3: validated high-efficiency gNA, TIM3 (guide TAAGTAGTAGCAGCAGCAGCA; spacer only, further chemistry not given here)
frameshifts frequency (fraction of frameshift to INDEL) (TIM3): 44%

gCSF2_007: best CSF2 gRNA; dual form Targeter_CSF2_007 UUGUAGAUCACAGGAGCCGACCUGCCUAC (synthetic gRNA ordered from IDT, chemistry not given here)
negative CSF2 cell population (CSF2 [1]; dual gRNA): ~60%
negative CSF2 cell population (CSF2 [1]; dual gRNA with the ssODN): ~80%
negative CSF2 cell population (CSF2 [1]; regular gRNA with the ssODN): ~90%
negative CSF2 cell population (CSF2 [1]; regular gRNA, 70% of control cells CSF2 positive): ~75%
cutting efficiency (CSF2 [2]; STAR design): ~45%
cutting efficiency (CSF2 [2]; STAR design, ssODN inclusion): ~70%
cutting efficiency (CSF2 [2]; regular design): approximately 65%
cutting efficiency (CSF2 [2]; regular design, ssODN inclusion): ~80%
Average on-target editing efficiency (CSF2 [3]; CSF2 gRNAs, Jurkat cells, Amplicon-NGS): 31.1
Total score (CSF2 [3]; CSF2 gRNAs, combines on-target editing efficiency and predicted off-target score): 30.7
cutting efficiency (rank among the three CSF2 gRNAs) (CSF2 [3]; Jurkat verification): highest

crPDCD1_1: top-two PDCD1 gNA (guide GCACGAAGCTCTCCGATGTGT; spacer only, further chemistry not given here)
INDEL frequency at predicted off-target sites [4]: No significant INDEL frequency

gTRAC006: spacer targeting TRAC, SEQ ID NO 988, TGAGGGTGAAGGATAGACGCT (chemistry not given here)
% Indel (human genes): 81.8%

gTRBC2_18 (guide CCTAGCAAGATCTCATAGAGG; chemistry not given here)
% Indel (human genes): 0.37%

Source: US20250179481A1, “COMPOSITIONS AND METHODS FOR TARGETING, EDITING, OR MODIFYING GENES” (Celyntra Therapeutics SA, priority 2021, published 2025)
